Usually IC90 stands for the concentration at which the effect reaches the 90% level. As usually defined, the IC50 is the concentration at which inhibition is half-maximal. As a reminder, the EC50 is the concentration at which the effect is half-maximal.

The text below walks through data of patent publication US12018084B2, “Anti-CXCR2 antibodies and uses thereof” (Cephalon LLC, priority 2018, dated 2024).

For one test, the system named is CD11b expression. As to conditions: cited from earlier work.
A further test addresses T1, CXCR1 (Homo sapiens, UniProt P25024).
T1 sequence (P25024 1-350): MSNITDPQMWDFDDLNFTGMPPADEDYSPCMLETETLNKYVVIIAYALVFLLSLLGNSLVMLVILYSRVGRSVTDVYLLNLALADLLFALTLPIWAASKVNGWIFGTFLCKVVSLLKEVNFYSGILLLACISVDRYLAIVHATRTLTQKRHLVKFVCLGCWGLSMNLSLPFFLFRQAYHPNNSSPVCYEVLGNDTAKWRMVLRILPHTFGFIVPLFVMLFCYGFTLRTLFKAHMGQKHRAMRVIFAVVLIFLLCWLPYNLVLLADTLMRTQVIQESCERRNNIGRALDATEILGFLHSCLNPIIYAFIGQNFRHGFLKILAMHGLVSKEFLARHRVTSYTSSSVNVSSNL
As to conditions: selectivity versus CXCR2; cited from earlier work.

For another test, the target named is T2, CCR2b receptors (Homo sapiens, UniProt P41597).
T2 sequence (P41597 1-360 isoform P41597-2): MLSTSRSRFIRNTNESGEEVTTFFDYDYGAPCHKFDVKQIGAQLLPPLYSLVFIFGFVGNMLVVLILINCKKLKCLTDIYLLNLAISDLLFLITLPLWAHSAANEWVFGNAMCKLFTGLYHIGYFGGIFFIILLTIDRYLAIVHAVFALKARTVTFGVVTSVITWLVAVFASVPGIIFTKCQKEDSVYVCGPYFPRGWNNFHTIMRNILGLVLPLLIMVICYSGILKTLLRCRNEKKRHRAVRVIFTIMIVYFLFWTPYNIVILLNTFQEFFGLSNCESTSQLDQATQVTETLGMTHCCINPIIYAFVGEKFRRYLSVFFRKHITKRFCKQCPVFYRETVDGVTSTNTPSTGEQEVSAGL
As to conditions: selectivity versus CXCR2; cited from earlier work.

For test [1], the system named is neutrophil surface expression of CD11b. As to conditions: cited from earlier work.
Test [2] deals with T3, Human CXCR2 (Homo sapiens, UniProt P25025).
T3 sequence (P25025 1-360): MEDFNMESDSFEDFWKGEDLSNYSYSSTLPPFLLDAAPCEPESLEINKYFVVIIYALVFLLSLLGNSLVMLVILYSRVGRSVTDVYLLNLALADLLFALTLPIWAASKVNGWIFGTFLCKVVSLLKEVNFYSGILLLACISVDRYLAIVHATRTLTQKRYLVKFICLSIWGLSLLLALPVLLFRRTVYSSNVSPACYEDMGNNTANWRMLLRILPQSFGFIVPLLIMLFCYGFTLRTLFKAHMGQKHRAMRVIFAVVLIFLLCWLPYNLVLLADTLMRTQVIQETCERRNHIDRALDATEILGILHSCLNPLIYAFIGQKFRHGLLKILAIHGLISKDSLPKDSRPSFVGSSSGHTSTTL
Put plainly: Tango CXCR2-bla U2OS cell-based β-arrestin recruitment assay. More on the design: The beta-arrestin/TEV protease fusion and the beta-lactamase reporter are separate parts of the cell line. Particulars: for EC50: human agonist potency. The text has this:
Cells were thawed, propagated, cultured and frozen according to the manufacturer's directions.
Preparation of Tango™ CXCR2-bla U2OS cells for use in cell-based assays: The manufacturer's protocol was altered to make use of 96-well plates instead of 384-well plates. Briefly, dividing cells were harvested one day prior to use. Cells were harvested and resuspended in assay medium (100% FreeStyle™ Expression Medium; Life Technologies; Cat #12338-018) at a viable cell density of 312,500 cells/mL. 128 μL of cell suspension was added per well in 96-well black-walled, clear bottom tissue culture-treated plates. Cells were incubated for 16-20 hrs at 37° C. in an atmosphere of 5% CO2 prior to use in assays.
Tango™ assay procedure: Assays were set up and run as described in the manufacturer's protocol. For antagonist assays, agonists were used at concentrations in the EC50-EC80 range. Assays were read using a FlexStation® 3 (Molecular Devices) fluorescence plate reader configured with the parameters given in Table 4. The blue/green emission ratio for each well was calculated by dividing the blue emission values by the green emission values. All inhibition curves were fitted using a four-parameter dose-response using GraphPad Prism™ (Version 7.01).
The Human CXCR2 Tango™ cell line was used to assess the ability of antibody BKO-4A8-101c to inhibit β-arrestin recruitment to agonist-activated CXCR2. All human ELR+ chemokine CXCR2 ligands were tested in antagonist dose response assays using calculated EC50 values of agonist.
The commercially available reporter cell line Tango™ CXCR2-bla U2OS (ThermoFisher Scientific) was used to assess the ability of the anti-CXCR2 antibodies to inhibit β-arrestin recruitment to agonist-activated CXCR2. Agonists were provided at their assay EC50 concentration for antagonist assays.
On the technique in general: Arrestin recruitment assays detect the binding of arrestin to an activated receptor.

Another test concerns COPD. As to conditions: in vivo; cited from earlier work.
Test [3] addresses T3, Human CXCR2. The experiment in a line: Calcium flux assay, HTS002C-CHEMISCREEN human CXCR2 calcium-optimized cell line. It is filed as cell-based. As to conditions: for EC50: human agonist potency. As to the method:
One of the signaling pathways downstream of CXCR2 activation that has a role in cell chemotaxis is characterized by calcium mobilization (flux). The ability of BKO-4A8-101c to inhibit human CXCR2 ligand-induced calcium flux was tested in the commercially available HTS002C-CHEMISCREEN™ human CXCR2 chemokine receptor calcium-optimized cell line.
The Fluo-4 NW calcium assay kit (Life Technologies) was used according to manufacturer's protocol for in-cell measurement of calcium mobilization, which was read using a FLIPR Tetra high-throughput cellular screening system (Molecular Devices). The peak response minus the basal response from each well was used to determine inhibition dose response curves fitting a four-parameter logistic equation and IC50 values.
Background: A change in cytosolic calcium serves as a functional read-out for many receptors and channels.

Test [4] relates to mouse model of severe asthma. Particulars: pre-treatment with 10 and 30 mg/kg; not significantly different from HDM-vehicle; cited from earlier work.

For `C[C@@H](Oc1cc(NS(=O)(=O)N2CCC2)nc(SCc2cccc(F)c2F)n1)[C@@H](O)CO` [AZD5069], in the test with CD11b expression, the “effect on C5a, LTB4 or fMLP induced CD11b expression” value is “no effect”. In addition, the “fold less potent at CXCR1” value on CXCR1 is on record as > 150 fold. The “fold less potent at CCR2b receptors” value on CCR2b receptors is recorded as > 150 fold.
`Cc1c(F)cccc1NC(=O)Nc1ccc(Cl)c(S(=O)(=O)[C@H]2CCCNC2)c1O` [Antagonist 5, Danirixin]: in test [1], the “CD11b upregulation on neutrophils” value is “block CD11b upregulation”. Besides, the “IC50, CXCL1-induced ex vivo neutrophil surface expression of CD11b” value in test [1] is 69 ng/mL. The “IC90, CXCL1-induced ex vivo neutrophil surface expression of CD11b” value in test [1] (range 158-1080 ng/ml) is 620 ng/mL. Further, in test [1] (range 356-2443 nM, read-out: IC90, CXCL1-induced ex vivo neutrophil surface expression of CD11b), the concentration for an effect of 90% (IC90) was 1400 nM. Further, the IC50 in test [1] (read-out: IC50, CXCL1-induced ex vivo neutrophil surface expression of CD11b) was 156 nM. Besides, the “CXCL1 Maximal Inhibition %” value at Human CXCR2 [2] (CXCL1 at EC50, comparison with comparators) was 99%; at Human CXCR2 [3] (CXCL1 at EC50), 95%. The “CXCL5 Maximal Inhibition %” value at Human CXCR2 [2] (CXCL5 at EC50, comparison with comparators) was 99%. Also, the “CXCL8 Maximal Inhibition %” value is reported as 99% at Human CXCR2 [2] (CXCL8 at EC50, comparison with comparators) and 97% at Human CXCR2 [3] (CXCL8 at EC50). Besides, in the test on COPD, the “primary end points in a Phase IIb trial for COPD” value is given as “failed to meet primary end points”.
In the case of `CC[C@@H](Nc1c(Nc2cccc(C(=O)N(C)C)c2O)c(=O)c1=O)c1ccc(C)o1` [Antagonist 6, SCH 527123], the “inhibition of neutrophil cell numbers in the BAL (maximum)” value in test [4] is ≤ 30%.
On to “CXCL1: human agonist chemokine, Miltenyi Biotec 130-108-974 [reference compound]”, for which the EC50 in the test with Human CXCR2 [2] came out at 2.3 nM; in the test with Human CXCR2 [3] it was 2.62 nM.
In the case of “CXCL2: human agonist chemokine, R&D Systems 276-GB [reference compound]”, the EC50 in the test with Human CXCR2 [2] turned out to be 33.3 nM; in the test with Human CXCR2 [3] it was 37 nM.
Taken in the same sequence, the figures for “CXCL3: human agonist chemokine, R&D Systems 277-GG [reference compound]” were 11.9 nM and 12.2 nM.
Taken in the same sequence, the figures for “CXCL5: human agonist chemokine, R&D Systems 254-XB [reference compound]” were 97.7 nM and 39.2 nM.
The matching figures for “CXCL6: human agonist chemokine, R&D Systems 333-GC [reference compound]”: 9.4 nM and 28.9 nM.
Regarding “CXCL8: human agonist chemokine, Miltenyi Biotec 130-108-979 [reference compound]”, the EC50 in the test with Human CXCR2 [3] is 3.2 nM.
